Experiments:
[1] = test system: β23 (HA-tagged) in SH-SY5Y cells; test: β23 clearance by Western blot and immunofluorescence of HA-tagged β23; format: cell-based, Human; details: 1 μM; for HA-β23 immunofluorescence signal in mCherry-positive transfected cells: 37 h
Description: Figure 1 Peucedanocoumarin IV (PCiv) inhibits β23 aggregations and cytotoxicity in SH-SY5Y cells. (A) Scheme showing the detailed experimental steps in the organic synthesis of racemic PCiv and racemic PCiii (rac-PCiii, and rac-PCiv). Both PCiii and PCiv used in this study are racemic forms. (B) Trypan blue exclusion cell viability assessment in SH-SY5Y cells with Tet-Off-induced β23 expressions. β23 was expressed for 24 h using the Tet-off system. Further expression of β23 was halted by doxycycline (Dox) treatment with simultaneous treatment of the PCiii, PCiv, or their synthetic intermediate, trans-khellatone (t-khellatone, 1 μM 24 h). Cell viability was assessed 24 h after doxycycline treatment (n = 5 per group). (C) Synthetic PCiv’s protective effect on Tet-Off-expressed β23 toxicity in SH-SY5Y cells compared with peucedanocoumarin III (PCiii) determined by trypan blue exclusion assay. (D) The degradation of β23 monitored by Western blot at 37 h after doxycycline (200 ng/mL) treatment. The representative Western blot image of HA (β23) in SH-SY5Y cells treated with synthetic PCiii, synthetic PCiv (1 μM, 37 h), or DMSO as a vehicle. (E) Quantification of HA (β23) expression in SH-SY5Y cells from the indicated experimental groups in panel D (n = 3 experiments per group). (F) Representative immunofluorescence of steady state HA (β23) expression in SH-SY5Y cells expressing Tet-Off regulatable reporter mCherry and HA-tagged β23. […] (G) Quantification of HA (β23) immunofluorescence signal in mCherry positive SH-SY5Y cells in each experimental group (n = 32 cells from three separate experiments per group). The data are expressed as means ± SEMs. * p < 0.05, ** p < 0.01, *** p < 0.001, and **** p < 0.0001, ANOVA test followed by Tukey’s post hoc analysis. […]
Lysis buffer was added to the SH-SY5Y cells washed with ice-cold PBS (1% Nonidet P40 in PBS, pH 7.4) that was supplemented with protease/phosphatase inhibitors. […] The supernatants were quantified through BCA protein assessment. […] Next, band quantification was performed using ImageJ software. […]

[2] = test system: α-synuclein PFF-treated mice cortical neurons; test: PFF-induced neurotoxicity in cortical neurons, CCK-8 assay; format: cell-based, mouse; details: CCK-8, 14 days PFF, 1 μM every 2 days
Description: Figure 2 PCiv prevents α-synuclein aggregation in vitro and in cultured neurons with PFF treatment. (A) Representative Western blots showing the degree of recombinant α-synuclein (αSyn) aggregation in a test tube in the presence or absence of PCiv (100 μM) at the indicated incubation duration (phosphate-buffered saline [PBS], 37 °C for 3 or 5 days). Aggregation of α-synuclein was determined using α-synuclein antibody. (B) Quantification of the relative amount of α-synuclein aggregate in high molecular weight sizes in panel A (n = 3 per group). (C) Representative immunofluorescence of MAP2 and Lewy-like inclusion marker pS129-αSyn in mice cortical neurons treated with α-synuclein preformed fibril (PFF) (1 μg, for 14 days). […] (D) Quantification of pS129-αSyn immunofluorescence signal intensities in MAP2-positive cortical neurons in each experimental group (n = 15 cells from three separate experiments). (E) Cell viability assessment in the indicated experimental groups was monitored by CCK-8 assay (n = 3 per group). The data are expressed as means ± SEMs. * p < 0.05, ** p < 0.01, *** p < 0.001, and **** p < 0.0001, ANOVA test followed by Tukey’s post hoc analysis.
CD1 mice were purchased from Orient Co. for use in the mouse primary neuron culture. […] The optical value was read at 450 nm using a multi-detection microplate reader (Synergy, BioTek Instruments Inc., Winooski, VT, USA).

Row | Structure (SMILES) | HA-β23 immunofluorescence signal in mCherry-positive transfected cells [1] | steady-state β23 expression levels (Western blot) ([1]; 37 h after doxycycline) | PFF-induced neurotoxicity (neuron viability) [2]
1 | C/C=C(\C)C(=O)O[C@H]1[C@H](OC(C)=O)c2c(ccc3ccc(=O)oc23)OC1(C)C (relative stereo) [PCiv, trans-4′-acetyl-3′-tigloylkhellactone] | markedly reduced | markedly reduced | prevented
2 | C/C=C(\C)C(=O)O[C@@H]1c2c(ccc3ccc(=O)oc23)OC(C)(C)[C@H]1OC(C)=O (relative stereo) [PCiii, peucedanocoumarin III] | markedly reduced |  | prevented

Reference: paper PMC9369442, “Synthetic Peucedanocoumarin IV Prevents α-Synuclein Neurotoxicity in an Animal Model of Parkinson’s Disease” (International Journal of Molecular Sciences, 2022)
